The nature of series [1]: Stability in air (room temperature; accelerated aging at 60° C.). Type of series: physicochemical. The text has this: The next step, shown in FIG. 2, in the production of the novel meso trioxane dimer 3 involves the substitution of the acetoxy group from the C-10 acetate 2 product to form the meso trioxane dimer 3 product. Inspiration for this bis-allylation of C-10 acetate 2 was based on the pioneering trioxane mono-allylations of Ziffer (Pu, Y. M.; Ziffer, H., Synthesis and Antimalarial Activities of 12β-Allyldeoxoartemisinin. J. Med. Chem. 1995, 38, 613-616) and O'Neill (O'Neill, et al., J. Med. Chem. 1999, 42, 5487-5493; and O'Neill, P. M., et al., J. Chem. Soc., Perkin Trans. 2001, 1, 2682-2689.) using allylsilane and based also on allylic bis-silane chemistry, see Rychnovsky, S. D., et. al., Tetrahedron Lett. 1999, 40, 41-44. The requisite allylic bis-silane is easily prepared in one step from the corresponding commercial allylic dichloride (Shown in FIG. 2); in the presence of fresh tin tetrachloride, the allylic bis-silane converts acetate 2 on gram scale into meso dimer 3, characterized by ^1H NMR spectroscopy as done before in structurally related trioxanes. This double substitution reaction undoubtedly proceeds sequentially via initial monoallylation, producing an intermediate C-10 allylic silane that then reacts with another molecule of trioxane acetate 2 to form the product dimer 3. […]

The test system of series [2] is chloroquine-sensitive P. falciparum (NF54). Briefly: Antimalarial activity in vitro, [3H]hypoxanthine incorporation. Type of series: cell-based. The settings on record: read-out: IC50.
For series [3] the following is noted: in vivo; cited from earlier work.
For series [4] the following is noted: rat liver microsomes; cited from earlier work. Background: Liver microsomes are vesicles of endoplasmic reticulum, rich in cytochrome P450 enzymes.

Here are results for 3 compounds from US7417156B2, “Orally active, antimalarial, anticancer, artemisinin-derived trioxane dimers” (Johns Hopkins University, priority 2002, dated 2008).

As to `C=C(CC1OC2OC3(C)CCC4C(C)CCC(C1C)C24OO3)CC1OC2OC3(C)CCC4C(C)CCC(C1C)C24OO3` (stereo not shown) [Compound 3, trioxane isobutene dimer], the “stability in air and light in words” value in series [1] is “stable in air and light at room temperature for at least six months”. The IC50 in series [2] is 24 nM.

Consider `C[C@H]1[C@@H](O)O[C@@H]2O[C@@]3(C)CC[C@H]4[C@H](C)CC[C@@H]1[C@@]24OO3` [Compound 31, dihydroartemisinin], for which the half-life in plasma result in series [3] is listed as “less than two hours”.

With `CCO[C@H]1O[C@@H]2O[C@@]3(C)CC[C@H]4[C@H](C)CC[C@@H]([C@H]1C)[C@@]24OO3` [arteether], the conversion into dihydroartemisinin entry in series [4] is listed as “rapidly converted”.

As usually defined, the IC50 is the concentration at which inhibition is half-maximal.
